According to PubChem BioAssay AID1963861 (Molecular Pharmacology Branch, DTP, NCI, 2024):
pIC50: −log10 of the molar value.

Test system: 885724-159-R-J1-PDC KRAS PDC multicell spheroid viability
Assay: Anticancer human tumor 885724-159-R-J1-PDC patient-derived pancreatic adenocarcinoma cell line growth inhibition [KRAS2]
Details: for viability, T/C: stronger effect = lower value
In short: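 KRAS-mutant tumor cells were grown as spheroids with HUVEC endothelial cells and human MSCs as stroma. Targeted agents were tested alone and with KRAS pathway inhibitors. Doses started at or near clinical Cmax, or 10 microM, descending half-log.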

[1] = curve of first compound, second compound 0.1 µM
[2] = curve of first compound, second compound 0.316 µM
[3] = curve of first compound, second compound 1 µM
[4] = curve of first compound, second compound 3.16 µM
[5] = curve of first compound, second compound 10 µM
[6] = second compound 0.1 µM, first compound 0.0316 µM
[7] = second compound 0.1 µM, first compound 0.1 µM
[8] = second compound 0.1 µM, first compound 0.316 µM
[9] = second compound 0.1 µM, first compound 1 µM
[10] = second compound 0.1 µM, first compound 3.16 µM
[11] = second compound 0.1 µM, first compound 10 µM
[12] = second compound 0.316 µM, first compound 0.0316 µM
[13] = second compound 0.316 µM, first compound 0.1 µM
[14] = second compound 0.316 µM, first compound 0.316 µM
[15] = second compound 0.316 µM, first compound 1 µM
[16] = second compound 0.316 µM, first compound 3.16 µM
[17] = second compound 0.316 µM, first compound 10 µM
[18] = second compound 1 µM, first compound 0.0316 µM
[19] = second compound 1 µM, first compound 0.1 µM
[20] = second compound 1 µM, first compound 0.316 µM
[21] = second compound 1 µM, first compound 1 µM
[22] = second compound 1 µM, first compound 3.16 µM
[23] = second compound 1 µM, first compound 10 µM
[24] = second compound 3.16 µM, first compound 0.0316 µM
[25] = second compound 3.16 µM, first compound 0.1 µM
[26] = second compound 3.16 µM, first compound 0.316 µM
[27] = second compound 3.16 µM, first compound 1 µM
[28] = second compound 3.16 µM, first compound 3.16 µM
[29] = second compound 3.16 µM, first compound 10 µM
[30] = second compound 10 µM, first compound 0.0316 µM
[31] = second compound 10 µM, first compound 0.1 µM
[32] = second compound 10 µM, first compound 0.316 µM
[33] = second compound 10 µM, first compound 1 µM
[34] = second compound 10 µM, first compound 3.16 µM
[35] = second compound 10 µM, first compound 10 µM
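Further: spheroids exposed to agents for 7 days before readout.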

`CCNC(=O)CC1N=C(c2ccc(Cl)cc2)c2cc(OC)ccc2-n2c(C)nnc21` (configuration not stated) + COc1cc2nc(C)nc(NC(C)c3cc(N)cc(C(F)(F)F)c3)c2cc1OC1CCOC1 gave a pIC50 [1] of 5.63, a pIC50 [2] of 5.51 and a pIC50 [3] of 5.60. The pIC50 [4] was 6.02, the pIC50 [5] was greater than 7.50 and the viability, T/C [6] was 99.4%. It also gave a viability, T/C [7] of 91.5%, a viability, T/C [8] of 75.2% and a viability, T/C [9] of 53.8%. It also gave a viability, T/C [10] of 50%, a viability, T/C [11] of 45.7% and a viability, T/C [12] of 101%. The viability, T/C [13] was 89.6%, the viability, T/C [14] was 76.4% and the viability, T/C [15] was 57%. The viability, T/C [16] was 51.7%, the viability, T/C [17] was 44.8% and the viability, T/C [18] was 95.9%. It also gave a viability, T/C [19] of 94.4%, a viability, T/C [20] of 72% and a viability, T/C [21] of 55.9%. It also gave a viability, T/C [22] of 49.1%, a viability, T/C [23] of 46.9% and a viability, T/C [24] of 94.6%. The viability, T/C [25] was 99.6%, the viability, T/C [26] was 69.1% and the viability, T/C [27] was 54.3%. The viability, T/C [28] was 47.8%, the viability, T/C [29] was 44.6% and the viability, T/C [30] was 34.8%. The viability, T/C [31] was 22.4%, the viability, T/C [32] was 16.5% and the viability, T/C [33] was 14.1%. The viability, T/C [34] was 20.1% and the viability, T/C [35] was 12.4%.
In the case of `COC(=O)c1ccc2c(C(=Nc3ccc(N(C)C(=O)CN4CCN(C)CC4)cc3)c3ccccc3)c(O)[nH]c2c1` + CNCc1ccccc1-c1csc(C(C)Nc2nc(C)nc3cc(OC)c(OC)cc23)c1, the pIC50 [1] was 5.59, the pIC50 [2] was 5.73 and the pIC50 [3] was 5.66. It also gave a pIC50 [4] greater than 7.50, a pIC50 [5] greater than 7.50 and a viability, T/C [6] of 111%. It also gave a viability, T/C [7] of 107%, a viability, T/C [8] of 117% and a viability, T/C [9] of 110%. It also gave a viability, T/C [10] of 36.2%, a viability, T/C [11] of 1.52% and a viability, T/C [12] of 108%. The viability, T/C [13] was 110%, the viability, T/C [14] was 107% and the viability, T/C [15] was 102%. The viability, T/C [16] was 6.06%, the viability, T/C [17] was 0.58% and the viability, T/C [18] was 106%. The viability, T/C [19] was 115%, the viability, T/C [20] was 107% and the viability, T/C [21] was 96.7%. For the same compound, the viability, T/C [22] was 27.2%, the viability, T/C [23] was 1.19% and the viability, T/C [24] was 1.59%. It also gave a viability, T/C [25] of 4.08%, a viability, T/C [26] of 1.18% and a viability, T/C [27] of 0.58%. For the same compound, the viability, T/C [28] was 1.26%, the viability, T/C [29] was 0.34% and the viability, T/C [30] was 0.26%. It also gave a viability, T/C [31] of 0.2%, a viability, T/C [32] of 0.15% and a viability, T/C [33] of 0.33%. The viability, T/C [34] was 0.38% and the viability, T/C [35] was 0.48%.
Work on `CN(C)C/C=C/C(=O)Nc1cc2c(Nc3ccc(F)c(Cl)c3)ncnc2cc1O[C@H]1CCOC1` + CC1OCC2(CCN(c3cnc(Sc4ccnc(N)c4Cl)c(N)n3)CC2)C1N yielded a pIC50 [1] of less than 7.00, a pIC50 [2] of less than 7.00 and a pIC50 [3] of less than 7.00. For the same compound, the pIC50 [4] was less than 7.00, the pIC50 [5] was less than 7.00 and the viability, T/C (second compound 0.1 µM, first compound 0.000316 µM) was 112%. For the same compound, the viability, T/C (second compound 0.1 µM, first compound 0.001 µM) was 105%, the viability, T/C (second compound 0.1 µM, first compound 0.00316 µM) was 105% and the viability, T/C (second compound 0.1 µM, first compound 0.01 µM) was 89.4%. It also gave a viability, T/C [6] of 71.8%, a viability, T/C [7] of 68% and a viability, T/C (second compound 0.316 µM, first compound 0.000316 µM) of 103%. For the same compound, the viability, T/C (second compound 0.316 µM, first compound 0.001 µM) was 102%, the viability, T/C (second compound 0.316 µM, first compound 0.00316 µM) was 90.7% and the viability, T/C (second compound 0.316 µM, first compound 0.01 µM) was 81.3%. For the same compound, the viability, T/C [12] was 78.6%, the viability, T/C [13] was 71.5% and the viability, T/C (second compound 1 µM, first compound 0.000316 µM) was 150%. It also gave a viability, T/C (second compound 1 µM, first compound 0.001 µM) of 144%, a viability, T/C (second compound 1 µM, first compound 0.00316 µM) of 136% and a viability, T/C (second compound 1 µM, first compound 0.01 µM) of 121%. It also gave a viability, T/C [18] of 105%, a viability, T/C [19] of 89.2% and a viability, T/C (second compound 3.16 µM, first compound 0.000316 µM) of 88.1%. For the same compound, the viability, T/C (second compound 3.16 µM, first compound 0.001 µM) was 88%, the viability, T/C (second compound 3.16 µM, first compound 0.00316 µM) was 77.8% and the viability, T/C (second compound 3.16 µM, first compound 0.01 µM) was 72.8%. The viability, T/C [24] was 67.1%, the viability, T/C [25] was 62.8% and the viability, T/C (second compound 10 µM, first compound 0.000316 µM) was 147%. The viability, T/C (second compound 10 µM, first compound 0.001 µM) was 149%, the viability, T/C (second compound 10 µM, first compound 0.00316 µM) was 140% and the viability, T/C (second compound 10 µM, first compound 0.01 µM) was 116%. It also gave a viability, T/C [30] of 104% and a viability, T/C [31] of 92%.
For `CC(C)NCC(C(=O)N1CCN(c2ncnc3c2C(C)CC3O)CC1)c1ccc(Cl)cc1` (configuration not stated), the viability, T/C (compound 0.0316 µM) was 95.8% [middle of 5 runs], the viability, T/C (compound 0.1 µM) was 83.2% [middle of 5 runs] and the viability, T/C (compound 0.316 µM) was 75.3% [middle of 5 runs]. For the same compound, the viability, T/C (compound 1 µM) was 75.9% [middle of 5 runs], the viability, T/C (compound 3.16 µM) was 84.6% [middle of 5 runs] and the viability, T/C (compound 10 µM) was 56.9% [middle of 5 runs]. The pIC50 (curve of compound) was less than 5.00.
`CCNC(=O)CC1N=C(c2ccc(Cl)cc2)c2cc(OC)ccc2-n2c(C)nnc21` (configuration not stated) + C=CC(=O)N1CCN(c2nc(=O)n(-c3c(C)ccnc3C(C)C)c3nc(-c4c(O)cccc4F)c(F)cc23)C(C)C1 gave a pIC50 [1] of less than 5.00, a pIC50 [2] of 5.18 and a pIC50 [3] of less than 5.00. For the same compound, the pIC50 [4] was 5.65, the pIC50 [5] was 6.45 and the viability, T/C [6] was 109%. The viability, T/C [7] was 95.6%, the viability, T/C [8] was 86.3% and the viability, T/C [9] was 65.6%. For the same compound, the viability, T/C [10] was 57%, the viability, T/C [11] was 52.7% and the viability, T/C [12] was 105%. The viability, T/C [13] was 94.4%, the viability, T/C [14] was 77.6% and the viability, T/C [15] was 61.3%. The viability, T/C [16] was 55.3%, the viability, T/C [17] was 47.2% and the viability, T/C [18] was 116%. It also gave a viability, T/C [19] of 89.6%, a viability, T/C [20] of 66.3% and a viability, T/C [21] of 63.9%. For the same compound, the viability, T/C [22] was 51.1%, the viability, T/C [23] was 51.8% and the viability, T/C [24] was 105%. For the same compound, the viability, T/C [25] was 90.5%, the viability, T/C [26] was 66.3% and the viability, T/C [27] was 51.8%. It also gave a viability, T/C [28] of 51.8%, a viability, T/C [29] of 45.9% and a viability, T/C [30] of 78%. It also gave a viability, T/C [31] of 66%, a viability, T/C [32] of 48.2% and a viability, T/C [33] of 43.1%. The viability, T/C [34] was 39.2% and the viability, T/C [35] was 33.6%.
`COc1cc2nccc(Oc3ccc(NC(=O)C4(C(=O)Nc5ccc(F)cc5)CC4)cc3)c2cc1OC` + C=CC(=O)N1CCN(c2nc(OCC3CCCN3C)nc3c2CCN(c2cccc4cccc(C)c24)C3)CC1CC#N was tested, and the pIC50 (curve of first compound, second compound 0.0316 µM) was less than 5.00, the pIC50 [1] was less than 5.00 and the pIC50 [2] was less than 5.00. The pIC50 [3] was less than 5.00, the pIC50 [4] was 6.37 and the viability, T/C (second compound 0.0316 µM, first compound 0.0316 µM) was 109%. It also gave a viability, T/C (second compound 0.0316 µM, first compound 0.1 µM) of 114%, a viability, T/C (second compound 0.0316 µM, first compound 0.316 µM) of 113% and a viability, T/C (second compound 0.0316 µM, first compound 1 µM) of 99.5%. The viability, T/C (second compound 0.0316 µM, first compound 3.16 µM) was 70.4%, the viability, T/C (second compound 0.0316 µM, first compound 10 µM) was 69.9% and the viability, T/C [6] was 111%. For the same compound, the viability, T/C [7] was 108%, the viability, T/C [8] was 102% and the viability, T/C [9] was 111%. The viability, T/C [10] was 72.2%, the viability, T/C [11] was 73% and the viability, T/C [12] was 102%. The viability, T/C [13] was 111%, the viability, T/C [14] was 106% and the viability, T/C [15] was 104%. The viability, T/C [16] was 79.7%, the viability, T/C [17] was 62.7% and the viability, T/C [18] was 111%. It also gave a viability, T/C [19] of 108%, a viability, T/C [20] of 111% and a viability, T/C [21] of 102%. The viability, T/C [22] was 66.6%, the viability, T/C [23] was 59.6% and the viability, T/C [24] was 80.1%. The viability, T/C [25] was 73.7%, the viability, T/C [26] was 55% and the viability, T/C [27] was 33.7%. For the same compound, the viability, T/C [28] was 12.4% and the viability, T/C [29] was 0.35%.
